Assay: Test for the content of related substances (stability in solution, HPLC)
Type: physicochemical
Conditions: dissolved in a solution
Experimental: Experimental Example 1—Test for the Content of Related Substances […] Thereafter, the contents of related substances were measured by high-performance liquid chromatography (HPLC). The same procedure was repeated except that crystalline efinaconazole was used instead of the solid dispersion.

SMILES: C=C1CCN([C@H](C)[C@](O)(Cn2cncn2)c2ccc(F)cc2F)CC1 [Efinaconazole, (2R,3R)-2-(2,4-difluorophenyl)-3-(4-methylenepiperidin-1-yl)-1-(1H-1,2,4-triazol-1-yl)butan-2-ol]
- content of related substances (oven at 65° C., 0 (initial)): 0
- content of related substances (oven at 65° C., 1 week): 0.45%
- content of related substances (oven at 65° C., 2 weeks): 0.54%
- content of related substances (oven at 65° C., 4 weeks): 1.53%
- content of related substances (room temperature, 0 (initial)): 0
- content of related substances (room temperature, 1 week): 0.27%
- content of related substances (room temperature, 2 weeks): 0.39%
- content of related substances (room temperature, 4 weeks): 0.40%

Reference: US12023408B2, “Amorphous efinaconazole solid dispersion” (DAEBONG LS CO., LTD., priority 2019, dated 2024)
